Measured values taken from US20210330611A1, “THERAPY FOR NEUROLOGICAL DISEASES/DISORDERS” (priority 2020, published 2021).
Counter-ions that a name gives are not always drawn. Like-named read-outs stand apart in the source and are kept apart here.

Columns and labels:
primary rat microglia [1] = assay: Cell toxicity (dead cells, size <150 μm2) in LPS assay
[2] = test system: LPS-induced microglia activation; assay: Image-based assay of LPS-induced microglia activation (HTS and dose response); type: cell-based, rat; settings: for inhibition at 10 µM: read-out: LPS % inhibition
primary rat microglia [3] = assay: Cell toxicity (dead cells, size <150 μm2) in coated fibrin (cFib) assay;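 also: share of dead cells sized under 150 µm2 at 10 µM in fibrin-stimulated microglia HTS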
[4] = test system: fibrin-induced microglia activation; assay: Image-based assay of fibrin-induced microglia activation (HTS and dose response); type: cell-based, rat; settings: for inhibition at 10 µM: read-out: Fibrin % inhibition
[5] = test system: fibrin- and LPS-induced microglia activation; assay: cells; type: cell-based, rat
[6] = primary HTS, 10 μM, LPS assay, dead cells size <150 μm2
[7] = Rattus norvegicus, Microglia, primary HTS, 10 μM, LPS-stimulated primary microglia
[8] = primary HTS, 10 μM, fibrin assay, dead cells size <150 μm2
[9] = Rattus norvegicus, Microglia, primary HTS, 10 μM, fibrin-stimulated primary microglia
[10] = primary microglia HTS, LPS stimulation, toxicity = cell size <150 μm2
[11] = Rattus norvegicus, Microglia, 48 h, primary microglia HTS, LPS stimulation, activation = cell size >800 μm2
[12] = primary microglia HTS, fibrin stimulation, toxicity = cell size <150 μm2
[13] = Rattus norvegicus, Microglia, primary microglia HTS, fibrin stimulation, activation = cell size >800 μm2
[14] = quadrant by fibrin and LPS inhibition in HTS of 1907 compounds
[15] = primary microglia HTS, LPS stimulation, decreased size (<150 μm^2) as marker of toxicity
[16] = Rattus norvegicus, Microglia, 48 h, primary microglia HTS, LPS stimulation, increased cell size (>800 μm^2) as marker of activation
[17] = primary microglia HTS, fibrin stimulation, decreased size (<150 μm^2) as marker of toxicity
[18] = Rattus norvegicus, Microglia, primary microglia HTS, fibrin stimulation, increased cell size (>800 μm^2) as marker of activation
[19] = primary microglia HTS, LPS stimulation, increased cell size (>800 μm^2) as marker of activation
[20] = primary microglia HTS, fibrin stimulation, increased cell size (>800 μm^2) as marker of activation
[21] = primary microglia HTS, 10 μM, LPS assay, cell size <150 μm^2 as marker of toxicity
[22] = Rattus norvegicus, Microglia, primary microglia HTS, 10 μM, LPS-stimulated, cell size >800 μm^2 as marker of activation
[23] = primary microglia HTS, 10 μM, fibrin assay, cell size <150 μm^2 as marker of toxicity
[24] = Rattus norvegicus, Microglia, primary microglia HTS, 10 μM, fibrin-stimulated, cell size >800 μm^2 as marker of activation
[25] = HTS of 1907 compounds, quadrant by fibrin and LPS inhibition

Compound	LPS % cell toxicity (primary rat microglia [1]; [10])	inhibition at 10 µM [2, 11]	Fibrin % cell toxicity (primary rat microglia [3]; [12])	inhibition at 10 µM [4, 13]	Quadrant (FIG. 5b) [5, 14]	LPS % cell toxicity (primary rat microglia [1]; [15])	Fibrin % cell toxicity (primary rat microglia [3]; [17])	other results
CC(=O)OCC1=C(C(=O)O)N2C(=O)[C@@H](NC(=O)Cc3cccs3)[C@H]2SC1 [Cefalotin]	–	–	–	–	–	–	–	LPS % cell toxicity (primary rat microglia [1]; [6]): 0%; inhibition at 10 µM [2, 7]: 1%; Fibrin % cell toxicity (primary rat microglia [3]; [8]): 1%; inhibition at 10 µM [4, 9]: 1%; Quadrant (FIG. 5b) ([5]; primary HTS, 10 μM): Q4
CCN(CCO)CCCC(C)Nc1ccnc2cc(Cl)ccc12 (stereo not drawn) [Hydroxychloroquine]	0%	17%	1%	35%	Q4	–	–	–
CCN(CCCCOC(=O)c1ccc(OC)c(OC)c1)C(C)Cc1ccc(OC)cc1 (stereo not drawn) [Mebeverine]	–	–	–	–	Q4	0%	0%	inhibition at 10 µM [2, 16]: 7%; inhibition at 10 µM [4, 18]: -11%
CC(NCCC(c1ccccc1)c1ccccc1)c1ccccc1 (stereo not drawn) [Fendiline hydrochloride, reference compound]	–	–	–	–	Q4	0%	1%	inhibition at 10 µM [2, 16]: 10%; IC50 ([2]; Rattus norvegicus, Microglia, Table 7, read-out: LPS_IC50): 0.9 µM; IC50 ([4]; Rattus norvegicus, Microglia, Table 7, read-out: fib_IC50): 1.75 µM; inhibition at 10 µM [4, 18]: -33%; Quadrant (FIG. 5b) ([5]; Table 2, screen at 10 μM): Q4; Activity ([5]; Table 7, fib = fibrin, LPS, tox = toxicity): fib/LPS
COCCc1ccc(OCC(O)CNC(C)C)cc1 (stereo not drawn) [Metoprolol]	–	–	–	–	Q4	0%	1%	inhibition at 10 µM [2, 16]: 22%; inhibition at 10 µM [4, 18]: 4%
CC(C)COC(=O)c1ccc(N)cc1 [Isobutamben]	0%	-1%	1%	-5%	Q4	–	–	–
CN1C(CCl)Nc2cc(Cl)c(S(N)(=O)=O)cc2S1(=O)=O (stereo not drawn) [Methyclothiazide]	–	–	–	–	Q4	0%	1%	inhibition at 10 µM [2, 16]: 17%; inhibition at 10 µM [4, 18]: 25%
CC(=O)N[C@H]1[C@H]([C@H](O)[C@H](O)CO)OC(O)(C(=O)O)C[C@@H]1O (stereo partly drawn) [N-acetylneuramic Acid, Aceneuramic Acid]	–	–	–	–	Q4	1%	1%	LPS % inhibition [2, 19]: 19%; Fibrin % inhibition [4, 20]: −9%
Gramicidin	–	–	–	–	Q2	64%	43%	LPS % inhibition [2, 19]: 118%; Fibrin % inhibition [4, 20]: 114%
Cc1cc(CC(=O)O)n(C)c1C(=O)c1ccc(Cl)cc1 [Zomepirac]	–	–	–	–	–	–	–	LPS % cell toxicity (primary rat microglia [1]; [21]): 0%; inhibition at 10 µM [2, 22]: 10%; Fibrin % cell toxicity (primary rat microglia [3]; [23]): 1%; inhibition at 10 µM [4, 24]: -4%; Quadrant (FIG. 5b) [5, 25]: Q4
CCC(=O)O[C@H](CC(=O)O)C[N+](C)(C)C [Levocarnitine Propionate Hydrochloride]	1%	12%	1%	-16%	Q4	–	–	–
O=C1C(O)=C(O)C(=O)C(O)=C1O [Tetraquinone]	–	–	–	–	–	–	–	LPS % cell toxicity (primary rat microglia [1]; [21]): 0%; LPS % inhibition ([2]; primary microglia HTS, 10 μM, LPS-stimulated, cell size >800 μm^2 as marker of activation): 15%; Fibrin % cell toxicity (primary rat microglia [3]; [23]): 0%; Fibrin % inhibition ([4]; primary microglia HTS, 10 μM, fibrin-stimulated, cell size >800 μm^2 as marker of activation): −10%; Quadrant (FIG. 5b) [5, 25]: Q4
Nc1nc(N)nc(-c2cc(Cl)ccc2Cl)n1 [Irsogladine Maleate]	0%	14%	1%	-27%	Q4	–	–	–
C#C[C@]1(O)CC[C@H]2[C@@H]3[C@H](C)CC4=C(CCC(=O)C4)[C@H]3CC[C@@]21C [Tibolone]	–	–	–	–	–	–	–	LPS % cell toxicity (primary rat microglia [1]; [21]): 0%; inhibition at 10 µM [2, 22]: 4%; Fibrin % cell toxicity (primary rat microglia [3]; [23]): 0%; inhibition at 10 µM [4, 24]: -8%; Quadrant (FIG. 5b) [5, 25]: Q4
S=C=Nc1ccc(N=C=S)cc1 [Bitoscanate]	–	–	–	–	–	–	–	LPS % cell toxicity (primary rat microglia [1]; [6]): 1%; inhibition at 10 µM [2, 7]: 3%; Fibrin % cell toxicity (primary rat microglia [3]; [8]): 1%; inhibition at 10 µM [4, 9]: -9%; Quadrant (FIG. 5b) ([5]; primary HTS, 10 μM): Q4
CN1CCC(=C2c3ccccc3CC(=O)c3sccc32)CC1 [Ketotifen]	0%	15%	1%	1%	Q4	–	–	–
